The target in one experiment is Acetylcholinesterase (Electrophorus electricus, UniProt O42275). In words: Inhibition of electric eel AChE using acetylthiocholine chloride as substrate after 15 mins by Ellman's method.
A short description of experiment [1]: Inhibition of alpha glucosidase by UV-[…] spectroscopy. On the technique in general: CD spectra are sensitive to the conformation of chiral molecules.

Sequence of Acetylcholinesterase (O42275 whole entry): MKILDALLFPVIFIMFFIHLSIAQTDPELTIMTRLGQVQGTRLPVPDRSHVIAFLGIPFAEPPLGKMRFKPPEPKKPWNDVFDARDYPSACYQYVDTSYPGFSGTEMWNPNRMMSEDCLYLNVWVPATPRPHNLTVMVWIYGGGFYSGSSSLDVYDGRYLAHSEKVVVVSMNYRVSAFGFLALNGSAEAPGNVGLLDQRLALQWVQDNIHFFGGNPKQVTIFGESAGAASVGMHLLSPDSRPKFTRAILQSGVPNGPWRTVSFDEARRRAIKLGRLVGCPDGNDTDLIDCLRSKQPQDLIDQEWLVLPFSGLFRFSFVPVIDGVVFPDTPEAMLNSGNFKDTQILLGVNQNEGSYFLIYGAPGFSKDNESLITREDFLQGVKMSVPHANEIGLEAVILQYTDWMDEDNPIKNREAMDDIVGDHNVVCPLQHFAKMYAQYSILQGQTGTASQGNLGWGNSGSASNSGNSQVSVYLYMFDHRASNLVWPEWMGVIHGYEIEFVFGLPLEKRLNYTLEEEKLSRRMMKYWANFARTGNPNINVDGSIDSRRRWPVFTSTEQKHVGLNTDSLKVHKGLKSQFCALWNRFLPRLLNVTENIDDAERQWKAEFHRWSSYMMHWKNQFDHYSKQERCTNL

What is called IC50 is the concentration that gives 50% inhibition. Consider `COc1c(-c2ccc(O)cc2)cc(O)c(-c2ccc(O)cc2)c1O`, for which the values for the IC50 (against Acetylcholinesterase; in experiment [1]) were > 100 µM and 0.9 µM, respectively. Turning to `COc1c(-c2ccc(O)cc2)cc(O)c(-c2ccc(O)c(O)c2)c1O`, the IC50 at Acetylcholinesterase was > 100 µM; in experiment [1], 4.9 µM. For `COc1c(-c2ccc(O)cc2)cc(O)c2c1oc1cc(O)c(O)cc12`, the IC50 on Acetylcholinesterase was 7.8 µM; in experiment [1], > 100 µM. For `COc1c(-c2ccc(O)c(O)c2)cc(O)c(-c2ccc(O)c(O)c2)c1O`, in that order: > 100 µM and 2.9 µM.

For `COc1c(-c2ccc(O)c(O)c2)cc(O)c2c1oc1cc(O)c(O)cc12` [6'-DESMETHYLCANDIDUSIN B], the values for the IC50 (against Acetylcholinesterase; in experiment [1]) were 5.2 µM and > 100 µM, respectively. With `CC[C@H](C)C(=O)C[C@H]1C2=COC(C)=CC2=CC(=O)[C@]1(C)O` [CHERMESINONE A], the IC50 is > 100 µM against Acetylcholinesterase and 24.5 µM in experiment [1]. For `CC[C@H](C)C(=O)[C@H]1C(=O)O[C@@]2(C)C(=O)C=C3C=C(C)OC=C3[C@H]12` [CHERMESINONE B], in that order: > 100 µM and > 100 µM.

`CC[C@H](C)C(=O)[C@H]1C(=O)O[C@@]2(C)C(=O)C=C3C=C(C)O[C@H](O)[C@H]3[C@H]12` [CHERMESINONE C]: the IC50 (against Acetylcholinesterase; in experiment [1]) was > 100 µM each time.

In experiment [1], `O=c1c(-c2ccc(O)cc2)coc2cc(O)cc(O)c12` [GENISTEIN] showed an IC50 of 9.8 µM.

(Values after ChEMBL document CHEMBL1800006, “Azaphilones and p-terphenyls from the mangrove endophytic fungus Penicillium chermesinum (ZH4-E2) isolated from the South China Sea” (J Nat Prod, 2011).)
